In PMC6271241, “Several Human Cyclin-Dependent Kinase Inhibitors, Structurally Related to Roscovitine, As New Anti-Malarial Agents” (Molecules, 2014):
Like-named read-outs stand apart in the source and are kept apart here.

Columns and labels:
Pf7G8 = experiment: [3H]hypoxanthine incorporation growth assay, Pf7G8; format: cell-based, Plasmodium falciparum; conditions: Plasmodium falciparum
Procedure: (§1) A selection of 15 molecules 4b–c, 10–13 representing the different 2,6,9-trisubstituted purine series, including newly synthesized products was screened as anti-malarial agents on two different P. falciparum strains, Pf3D7, a standard drug-sensitive African stain, and Pf7G8, a brazilian chloroquino-resistant strain (Figure 3). The compound activity was evaluated during the parasitic erythocytic cycle, by the means of a [^3H] hypoxanthine incorporation assay. It is directly correlated to parasite viability, as described in the experimental section.
(§2) At first, the activity of the fifteen compounds was screened at three different concentrations (10, 50 and 100 µM) on Pf3D7. Chloroquine which is not a kinase inhibitor, but which is the antimalarial reference drug was used as the positive control. […] Chloroquine was again used as a positive control.
(§3) Compounds were tested against synchronous ring-stage parasites of Pf3D7 and Pf7G8 strains. Drugs testing were carried out in 96-well microtiter plates. The chloroquine (CQ) diphosphate was purchased from Sigma (Lyon, France). […] For each assay, each drug dilution was analyzed in triplicate.
(§4) For the in vitro isotopic microtest, 200 µL of the suspension of synchronous parasitized red blood cells with >90% of the parasites at the ring stage (final parasitaemia, 0.3%; final haematocrit, 4%) per well were plated in 96-well plates that contained serial CQ or compounds concentrations. […] The plates were incubated at 37 °C, in an atmosphere of 5% O2, 5% CO2, and 90% N2 for 48 h. Immediately after incubation, plates were frozen and then thawed to lyse the erythrocytes. Cultures were harvested onto glass fiber filters and washed using a cell harvester (FilterMAT; Skatron Instruments, Dalsletta, Norway). The dried fiber filter papers were mixed with 2 mL of scintillation fluid (OptiScint; Perkin-Elmer, Waltham, UK). […] The initial value and the asymptotic result for high concentrations were fixed to 0% and 100%, respectively, available on the web.

DYRK1A = test system: DYRK1A; design: method as in PMID 17850214; conditions: at 0.1 µM; cited from earlier work
Pf3D7 = experiment: [3H]hypoxanthine incorporation growth assay, Pf3D7; format: cell-based, Plasmodium falciparum; conditions: Plasmodium falciparum
Procedure: as §1, §2, §3, §4

recombinant PfPK5 = test system: recombinant PfPK5; design: method as in PMID 10722743, PMID 11434907; conditions: cited from earlier work
Pfmrk = test system: Pfmrk; design: method as in PMID 10722743, PMID 11434907; conditions: recombinant; cited from earlier work
CDK1/cyclin B = CDK1/cyclin B kinase assay ([γ-33P] ATP, histone H1); format: biochemical, starfish; conditions: Table A1; read-out: IC50 on HsCDKs HsCDK1

**Q.** For `CC(C)[C@H](CO)Nc1nc(Nc2cccc(Cl)c2)c2ncn(C(C)C)c2n1` [Compound 2a, purvalanol A, reference compound], which IC50 (Pf7G8; 48 h, read-out: Growth IC50 Pf7G8) is on record?
**A.** Its IC50 is 8.12 µM.

**Q.** What about the IC50 (Pf7G8; read-out: IC50 on P. falciparum Strains Pf7G8) of the same molecule?
**A.** The IC50 was 8.12 µM.

**Q.** And the “remaining DYRK1A kinase activity” value (DYRK1A)?
**A.** The value was 88%.

**Q.** And the IC50 (Pf3D7; 48 h, read-out: Growth IC50 Pf3D7)?
**A.** Its IC50 is 4.58 µM.

**Q.** What about the IC50 (Pf3D7; read-out: IC50 on P. falciparum Strains Pf3D7) of the same molecule?
**A.** Its IC50 is 4.58 µM.

**Q.** What about the IC50 (recombinant PfPK5) of the same molecule?
**A.** Its IC50 is 8 µM.

**Q.** And the IC50 (Pfmrk)?
**A.** The IC50 was 26 µM.

**Q.** And the IC50 (CDK1/cyclin B)?
**A.** Its IC50 is 0.004 µM.
